System: E. coli, Streptococcus sp. and Proteus sp. isolated from the xenic culture
Test: Antibiotic susceptibility tests (antibiotic discs) with bacterial strains isolated from the xenic culture
Settings: strains isolated from original xenic culture (E. coli, Streptococcus sp., Proteus sp.)

Compound	susceptibility tests of the bacterial strains
neomycin	resistant to most antibiotics, except meropenem, neomycin and rifampicin
C[C@@H](O)[C@H]1C(=O)N2C(C(=O)O)=C(S[C@@H]3CN[C@H](C(=O)N(C)C)C3)[C@H](C)[C@H]12 [meropenem]	resistant to most antibiotics, except meropenem, neomycin and rifampicin

— US10350281B2 (priority 2012, dated 2019)
